{"source": "patent US10538506B2", "about": "“Crystal form of a potassium-competitive acid blocker and preparation method thereof” (Jiangsu Hansoh Pharmaceutical Group Co., Ltd., priority 2014, dated 2020)", "key": {"[1]": {"experiment": "Long-term stability testing, inspection items", "format": "physicochemical", "details": "for Appearance / Content (%) / HPLC identification / Moisture (%) / Particle size d (0.5) / Particle size d (0.9) / Related substance (%) Maximum unknown single impurity / Related substance (%) Total impurities: 30° C./65% humidity", "experimental": "The samples were prepared according to the method of Example 1, and then were placed under the long-term stability conditions (temperature: 30° C.±2° C.; humidity: 65%±5%) for six months."}, "[2]": {"experiment": "Hygroscopicity: weight gain due to moisture absorption", "format": "physicochemical", "experimental": "The samples were prepared according to the method of Example 1, and the following tests were carried out:\n(1) placing the sample at 25° C. and 75% humidity;\n(2) placing the sample at 25° C. and 92.5% humidity.\nThe aforementioned two samples were taken and tested at different time points to investigate weight gain of the samples due to moisture absorption."}}, "data": [{"smiles": "CNCc1cc(-c2ccccc2F)n(S(=O)(=O)c2cccnc2)c1.O=C(O)/C=C/C(=O)O", "note": "[Example 1, 1-[5-(2-fluorophenyl)-1-(pyridin-3-ylsulfonyl)-1H-pyrrol-3-yl]-N-methylmethanamine fumarate]", "values": [{"measurement": "Appearance", "setting": "[1]; 0 months", "value": "White powder"}, {"measurement": "Content (%)", "setting": "[1]; 0 months", "value": 99.6, "unit": "%"}, {"measurement": "HPLC identification", "setting": "[1]; 0 months", "value": "Consistent"}, {"measurement": "Moisture (%)", "setting": "[1]; 0 months", "value": 0.04, "unit": "%"}, {"measurement": "Particle size d (0.5)", "setting": "[1]; 0 months", "value": "d (0.5) ≤15 μm"}, {"measurement": "Particle size d (0.9)", "setting": "[1]; 0 months", "value": "d (0.9) ≤30 μm"}, {"measurement": "Related substance (%) Maximum unknown single impurity", "setting": "[1]; 0 months", "value": 0.03, "unit": "%"}, {"measurement": "Related substance (%) Total impurities", "setting": "[1]; 0 months", "value": 0.12, "unit": "%"}, {"measurement": "Appearance", "setting": "[1]; 3 months", "value": "White powder"}, {"measurement": "Content (%)", "setting": "[1]; 3 months", "value": 100.0, "unit": "%"}, {"measurement": "HPLC identification", "setting": "[1]; 3 months", "value": "Consistent"}, {"measurement": "Moisture (%)", "setting": "[1]; 3 months", "value": 0.08, "unit": "%"}, {"measurement": "Particle size d (0.5)", "setting": "[1]; 3 months", "value": "d (0.5) ≤15 μm"}, {"measurement": "Particle size d (0.9)", "setting": "[1]; 3 months", "value": "d (0.9) ≤30 μm"}, {"measurement": "Related substance (%) Maximum unknown single impurity", "setting": "[1]; 3 months", "value": 0.04, "unit": "%"}, {"measurement": "Related substance (%) Total impurities", "setting": "[1]; 3 months", "value": 0.13, "unit": "%"}, {"measurement": "Appearance", "setting": "[1]; 6 months", "value": "White powder"}, {"measurement": "Content (%)", "setting": "[1]; 6 months", "value": 99.7, "unit": "%"}, {"measurement": "HPLC identification", "setting": "[1]; 6 months", "value": "Consistent"}, {"measurement": "Moisture (%)", "setting": "[1]; 6 months", "value": 0.08, "unit": "%"}, {"measurement": "Particle size d (0.5)", "setting": "[1]; 6 months", "value": "d (0.5) ≤15 μm"}, {"measurement": "Particle size d (0.9)", "setting": "[1]; 6 months", "value": "d (0.9) ≤30 μm"}, {"measurement": "Related substance (%) Maximum unknown single impurity", "setting": "[1]; 6 months", "value": 0.03, "unit": "%"}, {"measurement": "Related substance (%) Total impurities", "setting": "[1]; 6 months", "value": 0.13, "unit": "%"}, {"measurement": "Stability", "setting": "[1]; long-term storage conditions, 30° C.±2° C., humidity 65%±5%, six months, fumarate", "value": "good stability"}, {"measurement": "weight gain due to moisture absorption (%)", "setting": "[2]; 25° C./RH 75%, 5 days", "value": 0.01, "unit": "%"}, {"measurement": "weight gain due to moisture absorption (%)", "setting": "[2]; 25° C./RH 75%, 10 days", "value": 0.13, "unit": "%"}, {"measurement": "weight gain due to moisture absorption (%)", "setting": "[2]; 25° C./RH 75%, 30 days", "value": 0.12, "unit": "%"}, {"measurement": "weight gain due to moisture absorption (%)", "setting": "[2]; 25° C./RH 92.5%, 5 days", "value": 0.17, "unit": "%"}, {"measurement": "weight gain due to moisture absorption (%)", "setting": "[2]; 25° C./RH 92.5%, 10 days", "value": 0.12, "unit": "%"}, {"measurement": "weight gain due to moisture absorption (%)", "setting": "[2]; 25° C./RH 92.5%, 30 days", "value": 0.19, "unit": "%"}]}]}
